From ChEMBL document CHEMBL4007510, “N6-Substituted 5'-N-Methylcarbamoyl-4'-selenoadenosines as Potent and Selective A3 Adenosine Receptor Agonists with Unusual Sugar Puckering and Nucleobase Orientation” (J Med Chem, 2017)
pEC50, pKi: −log10 of the molar value. Activity calls are given as the source filed them. No cut-off for these calls is given here.

Legend:
[1] = molecular target: T1, Adenosine receptor A1 (Homo sapiens, UniProt P30542); assay: Displacement of […] from human adenosine A1 receptor expressed in CHO cells after 60 mins by liquid scintillation analyzer; format: cell-based
T1 sequence (P30542 whole entry): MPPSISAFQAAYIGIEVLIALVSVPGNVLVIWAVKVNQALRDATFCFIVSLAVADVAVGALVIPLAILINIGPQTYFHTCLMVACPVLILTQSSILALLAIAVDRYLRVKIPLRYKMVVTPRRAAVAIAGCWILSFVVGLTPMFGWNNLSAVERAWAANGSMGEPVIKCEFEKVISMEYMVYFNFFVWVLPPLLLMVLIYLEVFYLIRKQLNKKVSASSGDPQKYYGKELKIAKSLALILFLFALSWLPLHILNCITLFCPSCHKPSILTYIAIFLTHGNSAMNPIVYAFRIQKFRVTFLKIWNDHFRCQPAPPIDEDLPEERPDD

[2] = molecular target: T2, Adenosine receptor A2a (Homo sapiens, UniProt P29274); assay: Displacement of [3H]CGS21680 from human adenosine A2A receptor expressed in HEK293 cells after 60 mins by liquid scintillation analyzer; format: cell-based
[3] = molecular target: T3, Adenosine receptor A3 (Homo sapiens, UniProt P0DMS8); assay: Displacement of [125I]I-AB-MECA from human adenosine A3 receptor expressed in CHO cells after 60 mins by gamma counting analysis; format: cell-based
T3 sequence (P0DMS8 whole entry): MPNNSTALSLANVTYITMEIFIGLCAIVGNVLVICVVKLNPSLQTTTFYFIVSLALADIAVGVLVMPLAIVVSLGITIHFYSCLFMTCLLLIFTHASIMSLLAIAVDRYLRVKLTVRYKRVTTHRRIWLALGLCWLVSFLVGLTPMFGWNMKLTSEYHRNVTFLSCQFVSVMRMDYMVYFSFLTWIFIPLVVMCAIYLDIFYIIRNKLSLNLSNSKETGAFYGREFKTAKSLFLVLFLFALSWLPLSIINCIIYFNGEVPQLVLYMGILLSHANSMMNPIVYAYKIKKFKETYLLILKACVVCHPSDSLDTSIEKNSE

[4] = molecular target: T4, Adenosine receptor A3 (Homo sapiens) (UniProt P0DMS8); assay: Agonist activity at human adenosine A3 receptor expressed in CHO cells assessed as decrease in forskolin induced cAMP formation preincubated for 10 mins followed by forskolin challenge measured after 15 mins by AlphaScreen assay relative to adenosine-5'-N- ethyluronamide; format: functional, cell-based; parameters: concentration or dose not given beside the values
T4 sequence (whole entry): T3 sequence (P0DMS8 whole entry)

[5] = molecular target: T5, Adenosine receptor A1 (Homo sapiens) (UniProt P30542); assay: Displacement of […] from human adenosine A1 receptor expressed in CHO cells at 10 uM after 60 mins by liquid scintillation analyzer relative to control; format: cell-based
T5 sequence (whole entry): T1 sequence (P30542 whole entry)

[6] = molecular target: T2, Adenosine receptor A2a; assay: Displacement of [3H]CGS21680 from human adenosine A2 receptor expressed in HEK293 cells at 10 uM after 60 mins by liquid scintillation analyzer relative to control; format: cell-based
[7] = Cytotoxicity against human MRC9 up to 20 uM; format: cell-based
[8] = system: Microglia; assay: Antimigratory activity in Sprague-Dawley rat microglial cells assessed as inhibition of MCP-1 mediated cell migration at 100 nM after 20 mins by inverted confocal microscopy; format: functional, cell-based
[9] = Cytotoxicity against Sprague-Dawley rat microglial cells assessed as effect on cell viability up to 50 uM after 24 hrs by presto blue assay; format: cell-based; conditions: microglia
[10] = molecular target: T3, Adenosine receptor A3; assay: Agonist activity at human adenosine A3 receptor expressed in CHO cells assessed as decrease in forskolin induced cAMP formation preincubated for 10 mins followed by forskolin challenge measured after 15 mins by AlphaScreen assay; format: functional, cell-based

T2 sequence (P29274 whole entry): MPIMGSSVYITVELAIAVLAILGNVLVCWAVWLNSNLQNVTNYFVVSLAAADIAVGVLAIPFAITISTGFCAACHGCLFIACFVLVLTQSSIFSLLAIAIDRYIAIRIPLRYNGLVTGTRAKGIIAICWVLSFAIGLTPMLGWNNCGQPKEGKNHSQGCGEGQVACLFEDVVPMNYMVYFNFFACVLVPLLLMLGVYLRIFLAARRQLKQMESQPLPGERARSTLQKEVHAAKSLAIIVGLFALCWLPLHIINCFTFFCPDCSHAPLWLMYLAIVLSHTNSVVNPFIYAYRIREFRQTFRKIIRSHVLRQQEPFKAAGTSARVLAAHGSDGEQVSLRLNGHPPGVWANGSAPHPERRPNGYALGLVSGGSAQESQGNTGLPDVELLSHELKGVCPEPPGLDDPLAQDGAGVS

SMILES	pKi [1]	pKi [2]	pKi [3]	Activity [4]	inhibition [5]	inhibition [6]	Activity [7]	inhibition [8]	Activity [9]	pEC50 [10]
CNC(=O)[C@H]1[Se][C@@H](n2cnc3c(NCc4ccccc4OC)ncnc32)[C@H](O)[C@@H]1O	5.73	5.90	8.43	97%	–	–	–	–	–	–
CNC(=O)[C@H]1[Se][C@@H](n2cnc3nc(Cl)nc(NCc4cccc(I)c4)c32)[C@H](O)[C@@H]1O	–	–	5.13	14%	7%	23%	–	–	–	–
CNC(=O)[C@H]1[Se][C@@H](n2cnc3c(NCc4cccc(Br)c4)nc(Cl)nc32)[C@H](O)[C@@H]1O	6.81	5.91	8.70	106%	–	–	–	–	–	–
CNC(=O)[C@H]1[Se][C@@H](n2cnc3c(NC4CCC4)nc(Cl)nc32)[C@H](O)[C@@H]1O	7.21	6.05	9.00	86.7%	–	–	–	–	–	–
CNC(=O)[C@H]1[Se][C@@H](n2cnc3c(NCc4ccccc4Cl)ncnc32)[C@H](O)[C@@H]1O	5.96	5.94	8.36	85%	–	–	–	–	–	–
CNC(=O)[C@H]1[Se][C@@H](n2cnc3c(NCc4cccc(Cl)c4)nc(Cl)nc32)[C@H](O)[C@@H]1O	6.63	6.62	8.71	99.7%	–	–	–	–	–	–
CNC(=O)[C@H]1[Se][C@@H](n2cnc3c(NCc4cccc(Br)c4)ncnc32)[C@H](O)[C@@H]1O	6.66	6.25	9.05	91%	–	–	Non-Toxic	–	–	–
CNC(=O)[C@H]1[Se][C@@H](n2cnc3c(NC4CC4)nc(Cl)nc32)[C@H](O)[C@@H]1O	6.73	–	8.72	83.6%	–	30.3%	–	–	–	–
CNC(=O)[C@H]1[Se][C@@H](n2cnc3c(NC4CCCC4)nc(Cl)nc32)[C@H](O)[C@@H]1O	7.23	5.95	8.45	92.5%	–	–	–	–	–	–
CNC(=O)[C@H]1[Se][C@@H](n2cnc3c(NC)ncnc32)[C@H](O)[C@@H]1O	5.69	–	8.83	108%	–	18%	–	–	–	–
CNC(=O)[C@H]1[Se][C@@H](n2cnc3c(NC4CC4)ncnc32)[C@H](O)[C@@H]1O	7.08	–	8.60	92%	–	54%	–	–	–	–
CNC(=O)[C@H]1[Se][C@@H](n2cnc3c(NCc4cccc(Cl)c4)ncnc32)[C@H](O)[C@@H]1O	6.24	6.26	8.46	80%	–	–	Non-Toxic	–	–	–
CNC(=O)[C@H]1[Se][C@@H](n2cnc3c(NCc4cccc(I)c4)nc(Cl)nc32)[C@H](O)[C@@H]1O	6.51	5.92	8.38	94.1%	–	–	–	–	–	–
CNC(=O)[C@H]1[Se][C@@H](n2cnc3c(N[C@@H]4C[C@H]4c4ccccc4)ncnc32)[C@H](O)[C@@H]1O	6.38	5.61	8.41	89%	–	–	–	–	–	–
CNC(=O)[C@H]1[Se][C@@H](n2cnc3c(NCc4cccc(F)c4)ncnc32)[C@H](O)[C@@H]1O	5.48	5.87	8.64	74%	–	–	Non-Toxic	–	–	–
CNC(=O)[C@H]1[Se][C@@H](n2cnc3ncnc(NCc4cccc(I)c4)c32)[C@H](O)[C@@H]1O	–	–	5.38	0.2%	26%	13%	–	–	–	–
CNC(=O)[C@H]1S[C@@H](n2cnc3c(NCc4cccc(I)c4)nc(Cl)nc32)[C@H](O)[C@@H]1O	–	–	–	–	–	–	–	Active	Non-Toxic	–
CNC(=O)[C@H]1[Se][C@@H](n2cnc3c(NC4CCC4)ncnc32)[C@H](O)[C@@H]1O	7.43	5.97	8.86	82%	–	–	–	–	–	–
CNC(=O)[C@H]1S[C@@H](n2cnc3c(NCc4cccc(I)c4)ncnc32)[C@H](O)[C@@H]1O	–	–	–	100%	–	–	–	–	–	–
CNC(=O)[C@H]1[Se][C@@H](n2cnc3c(NCc4ccc5ccccc5c4)ncnc32)[C@H](O)[C@@H]1O	6.36	6.71	8.75	109%	–	–	–	–	–	–
CNC(=O)[C@H]1[Se][C@@H](n2cnc3c(NC4CCCC4)ncnc32)[C@H](O)[C@@H]1O	7.60	5.96	8.15	77%	–	–	–	–	–	–
CNC(=O)[C@H]1[Se][C@@H](n2cnc3c(NCc4cccc(F)c4)nc(Cl)nc32)[C@H](O)[C@@H]1O	–	–	8.47	106%	37.3%	42%	–	–	–	–
CNC(=O)[C@H]1[Se][C@@H](n2cnc3c(NCc4cccc(I)c4)ncnc32)[C@H](O)[C@@H]1O	6.32	5.97	9.24	91%	–	–	Non-Toxic	Active	Non-Toxic	8.57
